The values that follow come from patent US10696637B2, “Nitrogen-containing heterocyclic compound” (FUJIFILM Corporation, priority 2015, dated 2020).

The assay deals with CXCL10 production. As to the kind of experiment: CXCL10 production inhibition test. It counts as cell-based. Particulars: Endothelial cell; test compound 0.1 μmol/L; human umbilical vein-derived endothelial cells; TNFα 10 ng/mL; supernatant 72 hours after stimulation; ELISA; read-out: Rate of inhibition of CXCL10 production. The protocol:
(CXCL10 Production Inhibition Test)
0.5×10^4 or 1×10^4 human umbilical vein-derived endothelial cells were suspended in 100 μL of an EGM-2 BulletKit medium (without GA) or a Medium-200 medium supplemented with an EGM-2 SingleQuots kit (without GA), inoculated to a 96-well plate and cultured overnight. 100 μL of a solution of each test compound diluted with the same medium as that used in the inoculation was added to the cultured cells (final concentration of the test compound: 0.1 μmol/L). 1 hour thereafter, TNFα was added thereto at a final concentration of 10 ng/mL. 72 hours after the stimulation, the supernatant was recovered, and the amount of CXCL10 produced in the culture supernatant was determined using an ELISA kit (Peprotech, 900-109).
The rate of inhibition was calculated according to the following expression: Rate of inhibition (%)=100−(Amount of CXCL10 produced in the presence of the test compound/Amount of CXCL10 produced in the absence of the test compound)×100
On the technique in general: In an ELISA, binding on a coated surface is turned into a signal by an enzyme label.

Take `CCn1c(=O)cc(C(C)C)c2cc(N(C)C(=O)c3ccc(Cl)cc3)ccc21` [Example 16, 4-chloro-N-(1-ethyl-2-oxo-4-(propan-2-yl)-1,2-dihydroquinolin-6-yl)-N-methylbenzamide]: the inhibition at 0.1 µM is at least 50%. In the case of `CCn1c(=O)cc(N2CCOCC2)c2cc(-n3c(-c4ccccc4)cn(CCN(C)C)c3=O)ccc21` [Example 261, 6-(3-(2-(dimethylamino)ethyl)-2-oxo-5-phenyl-2,3-dihydro-1H-imidazol-1-yl)-1-ethyl-4-(morpholin-4-yl)quinolin-2(1H)-one] it was at least 50%. The value for `CCn1c(=O)cc(C2CC2)c2cc(-n3c(=O)cc(C)n3-c3ccccc3)ccc21` [Example 282a, 4-cyclopropyl-1-ethyl-6-(3-methyl-5-oxo-2-phenyl-2,5-dihydro-1H-pyrazol-1-yl)quinolin-2(1H)-one] was at least 50%; that for `CCn1c(=O)cc(N2CCOCC2)c2cc(-c3cccnc3-c3ccccc3)ccc21` [Example 279, 1-ethyl-4-(morpholin-4-yl)-6-(2-phenylpyridin-3-yl)quinolin-2(1H)-one] was at least 50%; that for `CCn1cc(-c2ccccc2)n(-c2ccc3c(c2)c(N2CCOCC2)cc(=O)n3CC)c1=O` [Example 266, 1-ethyl-6-(3-ethyl-2-oxo-5-phenyl-2,3-dihydro-1H-imidazol-1-yl)-4-(morpholin-4-yl)quinolin-2(1H)-one] was at least 50%.

Consider `CCn1c(=O)cc(N2CCOCC2)c2cc(-n3c(-c4ccc(C)cc4)c[nH]c3=O)ccc21` [Example 274], for which the inhibition at 0.1 µM is at least 50%.

As to `CCn1c(=O)cc(C2CC2)c2cc(N3C(=O)C(C)C(=O)N3c3ccccc3)ccc21` (stereo not drawn) [Example 280, 1-(4-cyclopropyl-1-ethyl-2-oxo-1,2-dihydroquinolin-6-yl)-4-methyl-2-phenylpyrazolidine-3,5-dione], the inhibition at 0.1 µM is at least 50%. For the compound `CCn1c(=O)cc(C2CC2)c2cc(-n3c(C)cc(=O)n3-c3ccccc3)ccc21` [Example 282b, 4-cyclopropyl-1-ethyl-6-(5-methyl-3-oxo-2-phenyl-2,3-dihydro-1H-pyrazol-1-yl)quinolin-2(1H)-one], the inhibition at 0.1 µM was at least 50%.

As for `CCn1c(=O)cc(N2CCOCC2)c2cc(N(C)C(=O)c3ccc(Cl)cc3)ccc21` [Example 250, 4-chloro-N-(1-ethyl-4-(morpholin-4-yl)-2-oxo-1,2-dihydroquinolin-6-yl)-N-methylbenzamide], the inhibition at 0.1 µM was at least 50%. In the case of `CCn1c(=O)cc(C2CC2)c2cc(N(C)C(=O)c3ccccc3)ccc21` [Example 2, N-(4-cyclopropyl-1-ethyl-2-oxo-1,2-dihydroquinolin-6-yl)-N-methylbenzamide] it was at least 50%; in that of `CCn1c(=O)cc(N2CCOCC2)c2cc(N3C(=O)CC[C@H]3c3ccccc3)ccc21` [Example 253, 1-ethyl-4-(morpholin-4-yl)-6-((5S)-2-oxo-5-phenylpyrrolidin-1-yl)quinolin-2(1H)-one], at least 50%; in that of `CCn1c(=O)cc(C2CC2)c2cc(-n3c(=O)[nH]c(=O)n3-c3ccccc3)ccc21` [Example 248, 1-(4-cyclopropyl-1-ethyl-2-oxo-1,2-dihydroquinolin-6-yl)-2-phenyl-1,2,4-triazolidine-3,5-dione], at least 50%. The value for `CCn1c(=O)cc(C2CCN(C)CC2)c2cc(C(=O)N(C)c3ccc(C)c(Cl)c3)ccc21` [Example 293, N-(3-chloro-4-methylphenyl)-1-ethyl-N-methyl-4-(1-methylpiperidin-4-yl)-2-oxo-1,2-dihydroquinoline-6-carboxamide] was at least 50%. `CCn1c(=O)cc(C2CCN(C)CC2)c2cc(C(=O)N(C)c3ccc(C)c(C)c3)ccc21` [Example 294, N-(3,4-dimethylphenyl)-1-ethyl-N-methyl-4-(1-methylpiperidin-4-yl)-2-oxo-1,2-dihydroquinoline-6-carboxamide]: the inhibition at 0.1 µM was at least 50%. In the case of `CCn1c(=O)cc(C2CCN(C)CC2)c2cc(C(=O)N(C)c3ccc4c(c3)CCC4)ccc21` [Example 17, N-(2,3-dihydro-1H-inden-5-yl)-1-ethyl-N-methyl-4-(1-methylpiperidin-4-yl)-2-oxo-1,2-dihydroquinoline-6-carboxamide] it was at least 50%; in that of `CCn1c(=O)cc(C2CC2)c2cc(-c3nc(C)nn3-c3ccccc3)ccc21` [Example 252], at least 50%; in that of `CCn1c(=O)cc(C2CC2)c2cc(-c3nccnc3-c3ccccc3)ccc21` [Example 284, 4-cyclopropyl-1-ethyl-6-(3-phenylpyradin-2-yl)quinolin-2(1H)-one], at least 50%.

As for `CCn1c(=O)cc(C2CC2)c2cc(N3C(=O)CC[C@H]3c3ccccc3)ccc21` [Example 254, 4-cyclopropyl-1-ethyl-6-((5S)-2-oxo-5-phenylpyrrolidin-1-yl)quinolin-2(1H)-one], the inhibition at 0.1 µM is at least 50%. The value for `CCn1c(=O)cc(N2CCOCC2)c2cc(-n3c(-c4ccc(C)cc4)cn(C)c3=O)ccc21` [Example 273, 1-ethyl-6-(3-methyl-5-(4-methylphenyl)-2-oxo-2,3-dihydro-1H-imidazol-1-yl)-4-(morpholin-4-yl)quinolin-2(1H)-one] was at least 50%; that for `CCN1CCC(c2cc(=O)n(CC)c3ccc(C(=O)N(C)c4ccccc4)cc23)CC1` [Example 8, 1-ethyl-4-(1-ethylpiperidin-4-yl)-N-methyl-2-oxo-N-phenyl-1,2-dihydroquinoline-6-carboxamide] was at least 50%; that for `CCn1c(=O)cc(N2CCOCC2)c2cc(-n3c(-c4ccccc4)cn(CCN4CCOCC4)c3=O)ccc21` [Example 260, 1-ethyl-4-(morpholin-4-yl)-6-(3-(2-(morpholin-4-yl)ethyl)-2-oxo-5-phenyl-2,3-dihydro-1H-imidazol-1-yl)quinolin-2(1H)-one] was at least 50%. As for `CCn1c(=O)cc(N2CCOCC2)c2cc(-n3c(-c4ccccc4)cn(CCOC)c3=O)ccc21` [Example 263, 1-ethyl-6-(3-(2-methoxyethyl)-2-oxo-5-phenyl-2,3-dihydro-1H-imidazol-1-yl)-4-(morpholin-4-yl) quinolin-2(1H)-one], the inhibition at 0.1 µM is at least 50%.

Take `CCn1c(=O)cc(C2CCN(C)CC2)c2cc(C(=O)N(C)c3ccc(C)cc3)ccc21` [Example 14, 1-ethyl-N-methyl-N-(4-methylphenyl)-4-(1-methylpiperidin-4-yl)-2-oxo-1,2-dihydroquinoline-6-carboxamide]: the inhibition at 0.1 µM was at least 50%.

Regarding `CCn1c(=O)cc(C2CC2)c2cc(-n3c(-c4ccc(C)cc4)c[nH]c3=O)ccc21` [Example 276, 4-cyclopropyl-1-ethyl-6-(5-(4-methylphenyl)-2-oxo-2,3-dihydro-1H-imidazol-1-yl)quinolin-2(1H)-one], the inhibition at 0.1 µM was at least 50%. As for `CCn1c(=O)cc(C2CCN(C)CC2)c2cc(C(=O)N(C)c3ccc(C)c(F)c3)ccc21` [Example 292, 1-ethyl-N-(3-fluoro-4-methylphenyl)-N-methyl-4-(1-methylpiperidin-4-yl)-2-oxo-1,2-dihydroquinoline-6-carboxamide], the inhibition at 0.1 µM is at least 50%. In the case of `CCn1c(=O)cc(N2CCOCC2)c2cc(-n3cc(C)nc3-c3ccccc3)ccc21` [Example 256, 1-ethyl-6-(4-methyl-2-phenyl-1H-imidazol-1-yl)-4-(morpholin-4-yl)quinolin-2(1H)-one], the inhibition at 0.1 µM was at least 50%.

As for `CCn1c(=O)cc(N2CCOCC2)c2cc(-c3nccn3-c3ccccc3)ccc21` [Example 257, 1-ethyl-4-(morpholin-4-yl)-6-(1-phenyl-1H-imidazol-2-yl)quinolin-2(1H)-one], the inhibition at 0.1 µM is at least 50%. In the case of `CCn1c(=O)cc(C2CC2)c2cc(-c3nc(C)[nH]c3-c3ccccc3)ccc21` [Example 283, 4-cyclopropyl-1-ethyl-6-(2-methyl-5-phenyl-1H-imidazol-4-yl)quinolin-2(1H)-one] it was at least 50%. As to `CCn1c(=O)cc(N2CCOCC2)c2cc(-n3ccnc3-c3ccccc3)ccc21` [Example 255], the inhibition at 0.1 µM is at least 50%.

In the case of `CCn1c(=O)cc(C2CCC(O)CC2)c2cc(C(=O)N(C)c3ccc(Cl)cc3)ccc21` (stereo not drawn) [Example 286, N-(4-chlorophenyl)-1-ethyl-4-(4-hydroxycyclohexyl)-N-methyl-2-oxo-1,2-dihydroquinoline-6-carboxamide], the inhibition at 0.1 µM was at least 50%. In the case of `CCn1c(=O)cc(C2CC2)c2cc(-c3cccnc3-c3ccccc3)ccc21` [Example 278, 4-cyclopropyl-1-ethyl-6-(2-phenylpyridin-3-yl)quinolin-2(1H)-one] it was at least 50%. On to `CCn1c(=O)cc(N2CCOCC2)c2cc(-n3c(-c4ccccc4)cn(C(C)C)c3=O)ccc21` [Example 247, 1-ethyl-4-(morpholin-4-yl)-6-(2-oxo-5-phenyl-3-(propan-2-yl)-2,3-dihydro-1H-imidazol-1-yl)quinolin-2(1H)-one], for which the inhibition at 0.1 µM was at least 50%. In the case of `CCn1c(=O)cc(C2CC2)c2cc(-n3c(-c4ccc(Cl)cc4)cn(C)c3=O)ccc21` [Example 269, 6-(5-(4-chlorophenyl)-3-methyl-2-oxo-2,3-dihydro-1H-imidazol-1-yl)-4-cyclopropyl-1-ethylquinolin-2(1H)-one] it was at least 50%.

The term inhibition denotes the relative decrease from the control value, in per cent.
